The test system of data set [1] is SARS-COV-2 spike-induced syncytium formation in A549-ACE2 cells. The data set is classed as cell-based. Conditions: A549-ACE2-GFP1-10 cells pre-incubated with drug 20 min in FBS-free medium, then mixed with 293T-spike-GFP11-mCherry cells, 24 h.
In data set [2] the test system is SARS-COV-2-induced syncytium formation in Vero E6 cells. Conditions: drug screen with more than 3,000 approved drugs (ref. 19); cited from earlier work.
The next data set relates to SARS-COV-2. To be noted: Vero E6 cells; previous study (ref. 25); cited from earlier work.

`O=C1NC(=NS(=O)(=O)c2cccc3ccccc23)S/C1=C\c1ccc(Br)cc1` [Pitstop 2]: the “cell-cell fusion process (syncytium formation)” value in data set [1] was “suppressed the cell-cell fusion process”.

For the compound `COCCCC/C(=N\OCCN)c1ccc(C(F)(F)F)cc1` [fluvoxamine], in data set [2], the SARS-COV-2-induced syncytium formation entry was “some inhibitory effects”.

For `CC(CN1c2ccccc2Sc2ccccc21)N(C)C` (stereo not shown) [promethazine], the SARS-COV-2-induced cytotoxicity result in the data set on SARS-COV-2 is given as “reduces SARS-COV-2-induced cytotoxicity”. Besides, in data set [2], the SARS-COV-2-induced syncytium formation entry is given as “some inhibitory effects”.
